Measurements as given in patent US20240247021A1, “CRYSTAL FORMS OF KUDING SAPONIN A COMPOUND, PHARMACEUTICAL COMPOSITION AND USE THEREOF” (SHANGHAI KE PHARMACEUTICAL CO., LTD, priority 2021, published 2024).

How the values were obtained:
[1] = tested on: asthma mouse models with obvious pulmonary inflammation; test: Anti-inflammatory effect in asthma mouse models (eosinophilic granulocytes in alveolar lavage fluid, flow cytometry); type: in vivo, Balb/c mice; conditions: for Proportion of eosinophilic granulocytes (EOs): white blood cells of alveolar lavage fluid, day 39, negative control group 17.05
Description: Firstly, Kudinoside A solutions at different concentrations were prepared, and specific steps were as follows: • (1) Preparation of 15 mg/mL stock solution of the crystal form A of Kudinoside A: 0.50990 g of the crystal form A of Kudinoside A obtained in Example 1 was dissolved in 33.993 mL of propylene glycol under sonication to obtain about […] of 15 mg/mL stock solution of the crystal form A of Kudinoside A, which was stored at room temperature in the dark; • (2) Preparation of 1.5 mg/mL Kudinoside A solution: 2 mL of the 15 mg/mL stock solution of the crystal form A of Kudinoside A was measured out and diluted with 18 mL of 25% propylene glycol to obtain 20 mL of 1.5 mg/mL Kudinoside A solution, and the solution was freshly prepared before use. • (3) Preparation of 0.3 mg/mL Kudinoside A solution: 4 mL of the 1.5 mg/mL Kudinoside A solution was measured out and diluted with 16 mL of 32.5% propylene glycol to obtain 20 mL of 0.3 mg/mL Kudinoside A solution, and the solution was freshly prepared before use. • (4) Preparation of 0.06 mg/mL Kudinoside A solution: 3 mL of the 0.3 mg/mL Kudinoside A solution was measured out and diluted with 12 mL of 32.5% propylene glycol to obtain 15 mL of […] Kudinoside A solution, and the solution was freshly prepared before use.
Then, asthma mouse models with obvious pulmonary inflammation were constructed: 100 μL of 6 mg/mL chicken ovalbumin and 4 mg of aluminum hydroxide were injected intraperitoneally to Balb/c mice on day 1, 100 μL of 3.6 mg/mL chicken ovalbumin and 4 mg of aluminum hydroxide were injected on day 8, 100 μL of 1 mg/mL chicken ovalbumin and 4 mg of aluminum hydroxide were injected on day 15, and 6 mL of 2% chicken ovalbumin was administered by nebulization for exciting of 30 min every day from day 20 to day 23, thus constructing asthma mouse models with obvious pulmonary inflammation. For the mice in the blank control group, 100 μL of PBS was used instead of chicken ovalbumin.
Finally, the nebulization treatment was performed: from day 24, the Kudinoside A solutions at different concentrations (0.06 mg/mL, 0.3 mg/mL, and 1.5 mg/mL) were each administered by nebulization twice daily (30 min for each time, 12 mL in total) for treatment, and 6 mL of 2% chicken ovalbumin was administered by nebulization for exciting of 30 min 1 h after the nebulization treatment, and the administration and excitation were performed for 15 days according to this scheme; sampling was carried out 24 h after the last administration and excitation experiment, i.e., on day 39, and the Kudinoside A solution at the corresponding nebulization treatment concentration was administered twice (30 min for each time, 12 mL in total) for treatment before the sampling. The above was the scheme for the experimental groups of the nebulization treatment with Kudinoside A at different doses, and the mice in the negative control group were administered with 30% propylene glycol instead of Kudinoside A for nebulization.
Flow cytometry was adopted to detect proportion of eosinophilic granulocytes (EOs) in white blood cells of mouse alveolar lavage fluid samples. The blank group had 15 mice, the negative control group had 12 mice, and the high-, medium-, and low-concentration Kudinoside A experimental groups had 18 mice, 13 mice, and 14 mice, respectively.

bronchial smooth muscle = test: Relaxation effect on bronchial smooth muscle (bronchial ring tension); design: species or system C57BL/6J mice; conditions: for Average percentage of tension relaxation: bronchial rings pre-constricted, 20 minutes after adding
Description: Firstly, Kudinoside A solutions with different concentrations were prepared: 0.3253 g of the crystal form A of the Kudinoside A obtained in Example 1 was dissolved in 1 mL of dimethyl sulfoxide (DMSO) to prepare a stock solution of the crystal form A of Kudinoside A, and then the stock solution was diluted in sequence with DMSO into solutions of the crystal form A of Kudinoside A at concentrations of 1 μM, 3.2 μM, 10 μM, and 32 μM.
Then, bronchial rings were prepared: C57BL/6J mice aged 6 weeks were killed by breaking the neck, left and right bronchi were taken out and subjected to bronchia dissection under a stereomicroscope, and the obtained left and right bronchi were cut into bronchial rings with a length of about 2 mm.
Furthermore, the tension of the bronchial ring was balanced: the bronchial ring was fixed with two metal wires and suspended in a water bath at 37° C. containing 5 mL of balanced salt solution (Kreb solution), and a mixed gas containing 5% of carbon dioxide and 95% of oxygen was continuously introduced; then the tension of the bronchial ring was balanced using a tension transducer and re-balanced after pre-stimulation with 60 mM potassium chloride.
Finally, determination of the airway tension and drug administration were performed: the instrument was calibrated, and the detection system was zeroed; a tension value A was recorded when the tension of the mouse was stable; 5 μL of 10 mM […] was added to 5 mL of Kreb solution to make the final concentration to be 10 μM, and 5 μL of each of the solutions of the crystal form A of Kudinoside A at different concentrations (1 μM, 3.2 μM, 10 μM, and 32 μM) was added separately when the constriction tension of the bronchial ring reached the peak; the change of the bronchial tension was observed and recorded, and the percentage of the airway tension relaxation was calculated, as shown in Table 22. The average tension value 1 minute before adding the solution of Kudinoside A is recorded as B, the average tension value 20 minutes after adding Kudinoside A is recorded as C, and the percentage of airway tension relaxation is (B−C)/(B−A).

[2] = Conditions under which the crystal forms exist stably; type: physicochemical
[3] = Thermogravimetric analysis (TGA); type: physicochemical; conditions: 10 K/min, nitrogen
Description: Thermogravimetric analysis, or TGA for short, refers to a thermal analysis method for measuring the relationship of the mass of a sample to be detected with the change of temperature or time at a programmed temperature, and it is used to study information related to the quality of the sample, such as thermal stability, components of intermediate products possibly generated, etc. It is often used in combination with other thermal analysis methods for comprehensive thermal analysis. Methods for performing thermogravimetric analysis on the crystals are well known to those skilled in the art. In the present invention, the crystal forms A, C, and J of Kudinoside A are determined by using a thermogravimetric analyzer, and the specific measurement conditions are shown in Table 6.

[4] = Hygroscopicity test by dynamic vapor sorption (DVS); type: physicochemical; conditions: for Degree of hygroscopicity: criteria of Table 12
Description: Dynamic vapor sorption (DVS) is a test method for analyzing the moisture sorption performance of a sample and recording the moisture sorption isotherm, and it determines the stability of a compound by identifying its sorption capacity for moisture. Methods for performing dynamic vapor sorption analysis on the crystals are well known to those skilled in the art. In the present invention, the hygroscopicity of the crystal forms A, C, and J of Kudinoside A is determined by using a dynamic vapor sorption instrument, and the specific measurement conditions are shown in Table 7.
About 10 mg of each of the crystal forms A, C, and J obtained in Examples 1-3 was tested for its hygroscopicity using a dynamic vapor sorption (DVS) instrument (test conditions: a temperature of 25° C. and a relative humidity of 0%-80%), and the hygroscopicity of each crystal form was judged using the criteria shown in Table 12 below. For the steps and the judgment criteria of the hygroscopicity test, reference is made to the General Requirement 9103-Guidelines for Hygroscopicity in Pharmacopoeia of the People's Republic of China 2020 (Volume IV).

[5] = DVS, 25° C., relative humidity 0%-80%

Compound: 3β-12α-19α-trihydroxy-ursane-13(18)-ene-28,20β-lactone-3-O-[β-D-glucosyl-(1→3)-[α-L-rham nosyl-(1→2)]-α-L-arabinoside [Kudinoside A]
- Proportion of eosinophilic granulocytes (EOs) ([1]; 0.06 mg/mL solution by nebulization twice daily): 10.14
- Proportion of eosinophilic granulocytes (EOs) ([1]; 0.3 mg/mL solution by nebulization twice daily): 9.56
- Proportion of eosinophilic granulocytes (EOs) ([1]; 1.5 mg/mL solution by nebulization twice daily): 10.81
- anti-inflammatory effect (conclusion) ([1]; asthma mouse models): certain anti-inflammatory effects
- proportion of eosinophilic granulocytes compared with the negative control group ([1]; each dose (0.06, 0.3, 1.5 mg/mL)): decreases
- relaxation effect on bronchial smooth muscle (bronchial smooth muscle; 1 μM): no relaxation effect
- relaxation effect on bronchial smooth muscle (bronchial smooth muscle; 3.2 μM, 10 μM, and 32 μM): relaxed to a certain degree
- Average percentage of tension relaxation (bronchial smooth muscle; Concentration of Kudinoside A 1 μM): −3.57%
- Average percentage of tension relaxation (bronchial smooth muscle; Concentration of Kudinoside A 3.2 μM): 21.40%
- Average percentage of tension relaxation (bronchial smooth muscle; Concentration of Kudinoside A 10 μM): 42.93%
- Average percentage of tension relaxation (bronchial smooth muscle; Concentration of Kudinoside A 32 μM): 50.09%

Compound: C[C@@H]1O[C@@H](O[C@H]2[C@H](O[C@H]3CC[C@]4(C)[C@H]5C[C@H](O)C6=C7[C@]8(CC[C@](C)(OC8=O)[C@@]7(C)O)CC[C@@]6(C)[C@]5(C)CC[C@H]4C3(C)C)OC[C@H](O)[C@@H]2O[C@@H]2O[C@H](CO)[C@@H](O)[C@H](O)[C@H]2O)[C@H](O)[C@H](O)[C@H]1O [crystal form B, Kudinoside A]
- conditions under which the crystal form exists stably [2]: can only exist stably at high temperature

Compound: C[C@@H]1O[C@@H](O[C@H]2[C@H](O[C@H]3CC[C@]4(C)[C@H]5C[C@H](O)C6=C7[C@]8(CC[C@](C)(OC8=O)[C@@]7(C)O)CC[C@@]6(C)[C@]5(C)CC[C@H]4C3(C)C)OC[C@H](O)[C@@H]2O[C@@H]2O[C@H](CO)[C@@H](O)[C@H](O)[C@H]2O)[C@H](O)[C@H](O)[C@H]1O [crystal form C, Kudinoside A]
- decomposition temperature [3]: about 315 °C
- weight change when the relative humidity is in the range of 0%-80% ([4]; DVS graph (FIGS. 1d, 2d, 3d)): about 1.8%
- hygroscopicity ([4]; DVS graph (FIGS. 1d, 2d, 3d), judgment criteria of Table 7): slightly hygroscopic
- Increase in mass (relative humidity: 0%-80%) [4, 5]: 1.8%
- Degree of hygroscopicity [4, 5]: slightly hygroscopicity
- Degree of hygroscopicity ([4]; DVS, 25° C., relative humidity 0%-80%, listed as C): Slightly hygroscopic (The increase in mass is less than 2% but not less than 0.2%)
- conditions under which the crystal form exists stably [2]: can exist stably as a dry powder at room temperature

Compound: C[C@@H]1O[C@@H](O[C@H]2[C@H](O[C@H]3CC[C@]4(C)[C@H]5C[C@H](O)C6=C7[C@]8(CC[C@](C)(OC8=O)[C@@]7(C)O)CC[C@@]6(C)[C@]5(C)CC[C@H]4C3(C)C)OC[C@H](O)[C@@H]2O[C@@H]2O[C@H](CO)[C@@H](O)[C@H](O)[C@H]2O)[C@H](O)[C@H](O)[C@H]1O [crystal form D, Kudinoside A]
- conditions under which the crystal form exists stably [2]: can only exist stably when the sample is wet

Compound: C[C@@H]1O[C@@H](O[C@H]2[C@H](O[C@H]3CC[C@]4(C)[C@H]5C[C@H](O)C6=C7[C@]8(CC[C@](C)(OC8=O)[C@@]7(C)O)CC[C@@]6(C)[C@]5(C)CC[C@H]4C3(C)C)OC[C@H](O)[C@@H]2O[C@@H]2O[C@H](CO)[C@@H](O)[C@H](O)[C@H]2O)[C@H](O)[C@H](O)[C@H]1O [crystal form E, Kudinoside A]
- conditions under which the crystal form exists stably [2]: can only exist stably when the sample is wet

Compound: C[C@@H]1O[C@@H](O[C@H]2[C@H](O[C@H]3CC[C@]4(C)[C@H]5C[C@H](O)C6=C7[C@]8(CC[C@](C)(OC8=O)[C@@]7(C)O)CC[C@@]6(C)[C@]5(C)CC[C@H]4C3(C)C)OC[C@H](O)[C@@H]2O[C@@H]2O[C@H](CO)[C@@H](O)[C@H](O)[C@H]2O)[C@H](O)[C@H](O)[C@H]1O [crystal form G, Kudinoside A]
- conditions under which the crystal form exists stably [2]: can only exist stably when the sample is wet

Compound: C[C@@H]1O[C@@H](O[C@H]2[C@H](O[C@H]3CC[C@]4(C)[C@H]5C[C@H](O)C6=C7[C@]8(CC[C@](C)(OC8=O)[C@@]7(C)O)CC[C@@]6(C)[C@]5(C)CC[C@H]4C3(C)C)OC[C@H](O)[C@@H]2O[C@@H]2O[C@H](CO)[C@@H](O)[C@H](O)[C@H]2O)[C@H](O)[C@H](O)[C@H]1O [crystal form I2, Kudinoside A]
- conditions under which the crystal form exists stably [2]: cannot exist stably

Compound: C[C@@H]1O[C@@H](O[C@H]2[C@H](O[C@H]3CC[C@]4(C)[C@H]5C[C@H](O)C6=C7[C@]8(CC[C@](C)(OC8=O)[C@@]7(C)O)CC[C@@]6(C)[C@]5(C)CC[C@H]4C3(C)C)OC[C@H](O)[C@@H]2O[C@@H]2O[C@H](CO)[C@@H](O)[C@H](O)[C@H]2O)[C@H](O)[C@H](O)[C@H]1O [crystal form L, Kudinoside A]
- conditions under which the crystal form exists stably [2]: can only exist stably at high temperature
